According to patent US4792632A, “Bisacylphosphine oxides, the preparation and use thereof” (ESPE Fabrik Pharmazeutischer Praparate GmbH, priority 1984, dated 1988):

How the values were obtained:
[1] = Attained thickness of cured layer of resin solution (curing depth) after storage, dental radiator 20 s; settings: for Layer Thickness after 1 month / Layer Thickness after 24 hrs: 0.5% by weight photoinitiator in solution I, 20 s exposure; for Layer Thickness after 1 month: stored 1 month in absence of light; for Layer Thickness after 24 hrs: stored 1 day in absence of light; for Thickness Loss: 24 hrs versus 1 month storage
Method: 70 parts by weight of bis-acryloxymethyl-tricyclo-[5.2.1.0.^2,6 ]-decane and
30 parts by weight of 2,2-bis-4-(3-methacryloxy-2-hydroxypropoxy)-phenylpropane (Bis-GMA)
are stirred while carefully heated until a clear solution I is formed.
The solution I is cooled to room temperature and 0.5% by weight of a photoinitiator (selected from those listed in Table 2) are added with stirring until the solution is clear.
The resulting solution is introduced into a cylinder (5 mm diameter, 8 mm length; for greater thicknesses 20 mm). Thereafter the solution is exposed to radiation from a commercial dental radiator (Elipar-Visio/Espe) for 20 seconds, the polymer is removed from the cylinder, the soft or gel-like, incompletely polymerized components are removed with a plastic spatula, and the attained thickness of the layer is measured. To this end the solutions are stored prior to polymerization for 1 day and 1 month, respectively, in the absence of light.

[2] = Temperature course during polymerization of tooth filling composite; settings: 3 mm height, 20 s exposure; for Time for reaching Tmax: cylinder 3 mm diameter; for Tmax: middle of cylinder 3 mm diameter
Source text: (§1) Tooth filling composites prepared according to Example 3 with the use of the photoinitiators listed in Table 3 are filled into cylinders (3 mm diameter, 3 mm height) in the middle of which the temperature can be measured during the polymerization. After 20 seconds of exposure to light from a commercial dental radiator (Elipar-Visio lamp/Espe) the structures are taken out and the soft layer is removed with toluene. From the weight difference the amount of uncured material in mg/cm^2 at the upper and lower surface of the cylinder is calculated. Moreover, the temperature course in time is followed by the thermosensor and a measuring instrument connected thereto.

[3] = Uncured soft layer at surface of tooth filling composite; settings: 20 s exposure; for Soft Layer (amount of uncured material), upper surface: first of two values, upper surface of cylinder; for Soft Layer (amount of uncured material), lower surface: second of two values, lower surface of cylinder
Source text: as §1

[4] = UV/visible extinction at 400 nm; format: physicochemical; settings: for εmol at 400 nm: Table 1; for Extinction at 400 nm: Table 2

## Cc1ccc(C)c(P(=O)(C(=O)c2c(Cl)cccc2Cl)C(=O)c2c(Cl)cccc2Cl)c1 [Bis-(2,6-dichlorobenzoyl)-2,5-dimethylphenylphosphine Oxide]
[1]
  Layer Thickness after 1 month: 14.5 mm
  Layer Thickness after 24 hrs: 15 mm
  Thickness Loss: 3%
[2]
  Time for reaching Tmax: 16 s
  Tmax: 43.7 °C
[3]
  Soft Layer (amount of uncured material), upper surface: 1.0 mg/cm^2
  Soft Layer (amount of uncured material), lower surface: 1.1 mg/cm^2
[4]
  εmol at 400 nm: 580
  Extinction at 400 nm: 580

## COc1c(Cl)c(C(=O)P(=O)(C(=O)c2c(Cl)c(OC)c(OC)c(OC)c2Cl)c2cc(C)ccc2C)c(Cl)c(OC)c1OC [bis-(2,6-dichloro-3,4,5-trimethoxybenzoyl)-2,5-dimethylphenylphosphine oxide]
[4]
  εmol at 400 nm: 640

## CCOc1ccc(P(=O)(C(=O)c2c(Cl)cccc2Cl)C(=O)c2c(Cl)cccc2Cl)cc1 [bis-(2,6-dichlorobenzoyl)-4-ethoxyphenylphosphine oxide]
[4]
  εmol at 400 nm: 690

## CCOc1ccc(P(=O)(C(=O)c2c(OC)ccc3ccccc23)C(=O)c2c(OC)ccc3ccccc23)cc1 [bis-(2-methoxy-1-naphthoyl)-4-ethoxyphenylphosphine oxide]
[4]
  εmol at 400 nm: 2700

## Cc1ccc2ccccc2c1C(=O)P(=O)(C(=O)c1c(C)ccc2ccccc12)c1ccccc1 [bis-(2-methyl-1-naphthoyl)phenylphosphine oxide]
[4]
  εmol at 400 nm: 1040

## COc1cccc(OC)c1C(=O)P(=O)(C(=O)c1c(OC)cccc1OC)c1ccccc1 [bis-(2,6-dimethoxybenzoyl)phenylphosphine oxide]
[4]
  εmol at 400 nm: 550

## CCCCCCCCCCP(=O)(C(=O)c1c(Cl)cccc1Cl)C(=O)c1c(Cl)cccc1Cl [bis-(2,6-dichlorobenzoyl)decylphosphine oxide]
[4]
  εmol at 400 nm: 470

## COc1ccc2ccccc2c1C(=O)P(=O)(C(=O)c1c(OC)ccc2ccccc12)c1cc(C)ccc1C [Bis-(2-methoxy-1-naphthoyl-2,5-dimethylphenylphosphineoxide]
[4]
  εmol at 400 nm: 2550

## O=C(c1c(Cl)cccc1Cl)P(=O)(C(=O)c1c(Cl)cccc1Cl)c1ccccc1 [bis-(2,6-dichlorobenzoyl)phenylphosphine oxide]
[1]
  Layer Thickness after 1 month: 14.5 mm
  Layer Thickness after 24 hrs: 15 mm
  Thickness Loss: 3%
[4]
  εmol at 400 nm: 607
  Extinction at 400 nm: 607

## O=C(c1c(Cl)cccc1Cl)P(=O)(C(=O)c1c(Cl)cccc1Cl)c1ccc(-c2ccccc2)cc1 [bis-(2,6-dichlorobenzoyl)-4-biphenylylphosphine oxide]
[4]
  εmol at 400 nm: 800

## CCCCCCCCc1ccc(P(=O)(C(=O)c2c(Cl)cccc2Cl)C(=O)c2c(Cl)cccc2Cl)cc1 [bis-(2,6-dichlorobenzoyl)-4-octylphenylphosphine oxide]
[4]
  εmol at 400 nm: 620

## Cc1ccc2ccccc2c1C(=O)P(=O)(C(=O)c1c(C)ccc2ccccc12)c1ccc(-c2ccccc2)cc1 [bis-(2-methyl-1-naphthoyl)-4-biphenylylphosphine oxide]
[4]
  εmol at 400 nm: 1680

## O=C(c1c(Cl)cccc1Cl)P(=O)(c1ccccc1)c1ccccc1 [2,6-Dichlorobenzoyl-diphenylphosphine oxide, reference compound]
[1]
  Layer Thickness after 1 month: 6.5 mm
  Layer Thickness after 24 hrs: 7 mm
  Thickness Loss: 7%
[4]
  Extinction at 400 nm: 190

## Cc1ccc(C)c(P(=O)(C(=O)c2c(Cl)cccc2Cl)c2cc(C)ccc2C)c1 [2,6-Dichlorobenzoyl-bis-(2,5-dimethylphenyl)phosphine oxide, reference compound]
[1]
  Layer Thickness after 1 month: 4.1 mm
  Layer Thickness after 24 hrs: 5.1 mm
  Thickness Loss: 20%
[4]
  Extinction at 400 nm: 440

## Cc1cc(C)c(C(=O)P(=O)(c2ccccc2)c2ccccc2)c(C)c1 [2,4,6-Trimethylbenzoyldiphenylphosphine oxide, reference compound]
[2]
  Time for reaching Tmax: 18 s
  Tmax: 39.8 °C
[3]
  Soft Layer (amount of uncured material), upper surface: 1.8 mg/cm^2
  Soft Layer (amount of uncured material), lower surface: 2.0 mg/cm^2

## COc1cccc(OC)c1C(=O)P(=O)(C(=O)c1c(OC)cccc1OC)c1cc(C)ccc1C [bis-(2,6-dimethoxybenzoyl)-2,5-dimethylphenylphosphine oxide]
[4]
  εmol at 400 nm: 505
